Data on two compounds can be found in US20080306076A1, “MODULATION OF CHEMOSENSORY RECEPTORS AND LIGANDS ASSOCIATED THEREWITH” (SENOMYX, INC., priority 2007, published 2008).

The target in test [1] is T1, hT1R1 H308A (Homo sapiens, UniProt Q7RTX1, H308A).
T1 construct: expressed in transfected cells; host or cells: HEK293, transient transfection
T1 sequence (Q7RTX1 21-841 H308A): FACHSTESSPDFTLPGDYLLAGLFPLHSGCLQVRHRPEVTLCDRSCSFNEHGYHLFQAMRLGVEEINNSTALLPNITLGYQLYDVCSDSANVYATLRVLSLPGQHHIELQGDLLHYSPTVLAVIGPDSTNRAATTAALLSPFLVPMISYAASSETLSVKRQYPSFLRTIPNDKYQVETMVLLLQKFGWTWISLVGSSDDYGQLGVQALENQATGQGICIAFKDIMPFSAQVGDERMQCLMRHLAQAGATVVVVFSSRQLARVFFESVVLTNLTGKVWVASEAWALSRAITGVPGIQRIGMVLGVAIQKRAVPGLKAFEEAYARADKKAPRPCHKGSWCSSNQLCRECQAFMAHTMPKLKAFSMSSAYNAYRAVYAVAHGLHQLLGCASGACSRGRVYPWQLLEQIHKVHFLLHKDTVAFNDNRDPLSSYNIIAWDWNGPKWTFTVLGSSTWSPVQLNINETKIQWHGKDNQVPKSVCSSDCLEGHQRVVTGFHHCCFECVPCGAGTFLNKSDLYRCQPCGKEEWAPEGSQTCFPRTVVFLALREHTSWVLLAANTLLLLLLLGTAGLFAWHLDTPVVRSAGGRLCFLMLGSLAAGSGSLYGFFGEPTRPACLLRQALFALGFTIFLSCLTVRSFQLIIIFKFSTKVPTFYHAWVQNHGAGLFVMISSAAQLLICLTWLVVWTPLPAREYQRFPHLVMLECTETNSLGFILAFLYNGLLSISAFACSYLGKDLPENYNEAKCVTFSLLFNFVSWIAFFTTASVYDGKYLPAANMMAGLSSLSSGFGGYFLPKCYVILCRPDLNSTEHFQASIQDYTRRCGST
T1 sequence (Q923K1 21-858 partner): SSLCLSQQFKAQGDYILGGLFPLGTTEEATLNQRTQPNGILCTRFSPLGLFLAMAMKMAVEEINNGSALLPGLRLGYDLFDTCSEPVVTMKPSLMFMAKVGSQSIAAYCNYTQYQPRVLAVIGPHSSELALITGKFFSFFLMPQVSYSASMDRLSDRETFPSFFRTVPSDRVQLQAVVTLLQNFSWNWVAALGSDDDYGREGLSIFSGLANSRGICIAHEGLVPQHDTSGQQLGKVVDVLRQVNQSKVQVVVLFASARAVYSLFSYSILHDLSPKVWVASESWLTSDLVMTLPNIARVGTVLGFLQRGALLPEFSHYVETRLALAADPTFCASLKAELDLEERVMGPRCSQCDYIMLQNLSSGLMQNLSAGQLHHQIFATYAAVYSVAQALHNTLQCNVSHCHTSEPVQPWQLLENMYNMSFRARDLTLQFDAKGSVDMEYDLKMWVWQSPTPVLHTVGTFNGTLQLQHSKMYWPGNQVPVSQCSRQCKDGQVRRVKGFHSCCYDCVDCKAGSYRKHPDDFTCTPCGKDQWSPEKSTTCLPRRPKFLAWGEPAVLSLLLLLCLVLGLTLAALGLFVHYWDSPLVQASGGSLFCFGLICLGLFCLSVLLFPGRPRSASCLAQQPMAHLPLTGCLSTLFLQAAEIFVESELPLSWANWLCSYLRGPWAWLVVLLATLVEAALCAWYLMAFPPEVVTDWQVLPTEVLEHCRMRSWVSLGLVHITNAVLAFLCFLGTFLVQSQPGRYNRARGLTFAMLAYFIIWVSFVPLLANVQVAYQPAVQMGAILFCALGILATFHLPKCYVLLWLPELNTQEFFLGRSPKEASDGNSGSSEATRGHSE
As to the kind of experiment: Mutagenesis study, hT1R1 mutant H308A. The format is cell-based. The conditions noted are these: H308 mutation. The text has this: (§1) In order to further define the interaction sites of umami stimuli, we performed site-directed mutagenesis on human T1R1 VFT. The mutagenesis was done using the routine PCR-based method. […] were transiently transfected into HEK293 cell together with the rat T1R3 wild type cDNA, and the transfected cells were characterized using an automated FLIPR machine or a calcium imaging system as described in our previous patent applications.

The target of test [2] is T2, hT1R1 D192A (Homo sapiens, UniProt Q7RTX1, D192A).
T2 construct: expressed in transfected cells; host or cells: HEK293, transient transfection
T2 sequence (Q7RTX1 21-841 D192A): T1 sequence (Q7RTX1 21-841 H308A) with D172A, A288H
T2 sequence (Q923K1 21-858 partner): T1 sequence (Q923K1 21-858 partner)
As to the kind of experiment: Mutagenesis study, hT1R1 mutant D192A. It counts as cell-based. The conditions noted are these: D192 mutant, FIG. 11.
From the text: as §1

Changes are numbered by the printed parent chain.

For the compound `Nc1nc2c(ncn2[C@@H]2O[C@H](COP(=O)(O)O)[C@@H](O)[C@H]2O)c(=O)[nH]1` [GMP, guanosine-5′-monophosphate], the “enhancement activity of GMP” value in test [1] is on record as “similarly affected”.

On to `N[C@@H](CCC(=O)O)C(=O)O` [L-Glu, L-glutamate], for which the “activity against L-Glu” value in test [2] is “significant reduced activity”.
